Values of other authors in patent US20100137246A1, “Anti-inflammatory compositions and methods” (Searete LLC, a limited liability corporation of the State …, priority 2008, published 2010).
One block for each molecule: values may come before it.

Key:
[1] = test system: lethal septic shock in mice
[2] = single agent, infused at 400 mg over one hour
Fyn = Fyn (Homo sapiens, UniProt P06241); details: at nanomolar concentrations
proteasome = details: cultured breast cancer cells; through binding copper

Fyn, sequence (P06241 whole entry, species assumed): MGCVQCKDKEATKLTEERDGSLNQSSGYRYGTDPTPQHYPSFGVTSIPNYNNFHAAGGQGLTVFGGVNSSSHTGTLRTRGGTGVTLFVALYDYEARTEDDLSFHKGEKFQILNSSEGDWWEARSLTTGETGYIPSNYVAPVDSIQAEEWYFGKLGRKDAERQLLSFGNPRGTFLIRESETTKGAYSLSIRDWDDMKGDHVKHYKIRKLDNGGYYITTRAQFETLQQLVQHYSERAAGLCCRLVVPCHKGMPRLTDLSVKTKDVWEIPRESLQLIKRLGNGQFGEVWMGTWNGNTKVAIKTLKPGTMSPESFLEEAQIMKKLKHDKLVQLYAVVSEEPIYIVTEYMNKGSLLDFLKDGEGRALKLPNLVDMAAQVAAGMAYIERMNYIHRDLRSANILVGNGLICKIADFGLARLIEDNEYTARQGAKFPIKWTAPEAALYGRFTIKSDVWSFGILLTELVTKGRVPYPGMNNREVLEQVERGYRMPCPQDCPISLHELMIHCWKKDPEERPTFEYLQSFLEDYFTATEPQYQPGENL

inhibition of CpG-induced Src family kinase activation, or its dependent cellular responses (Src family kinase): does not inhibit
SMILES: CCN(CC)CCCC(C)Nc1ccnc2cc(Cl)ccc12 (centres unmarked) [Chloroquine]

SMILES: Cl.Cl.Nc1ccccc1Oc1ccc2c(N)nsc2c1 [Example M62812, 3-amino-6-(2-aminophenoxy)-1,2-benzisothiazole dihydrochloride]
prevention of lethal septic shock [1]: prevents lethal septic shock

SMILES: CCN(CC)CCCC(C)Nc1ccnc2cc(Cl)ccc12.O=P(O)(O)O.O=P(O)(O)O (centres unmarked) [chloroquine phosphate, 7-chloro-4-[[4-(diethylamino)-1-methylbutyl]amino]quinoline phosphate (1:2)]
tolerability of infusion [2]: without complication

SMILES: Cc1nc(Nc2ncc(C(=O)Nc3c(C)cccc3Cl)s2)cc(N2CCN(CCO)CC2)n1.O [dasatinib, N-(2-chloro-6-methylphenyl)-2-[[6-[4-(2-hydroxyethyl)-1-piperazinyl]-2-methyl-4-pyrimidinyl]amino]-5-thiazolecarboxamide, monohydrate]
inhibition of Fyn (Fyn): inhibits

SMILES: CCN(CC)C(=S)SSC(=S)N(CC)CC [disulfuram, 1-(diethylthiocarbamoyldisulfanyl)-N,N-diethyl-methanethioamide]
proteasomal activity (proteasome): inhibits proteasomal activity
